Measurements published in article PMC4937332 (2016).

Test system: T8A7 (in solution, with anchor) (RNA, riboswitch) GGGGAACAAACAUUCAAAAUAAUAACACAAGAUAUGAGCGAAUGACAGCAAGGGGAGAGACCUGACCGAAAACCUCGGGAUACAGGCGCCGAAGGAGCAAACUGCGGAGUGAAUCUCUCAGGCAAAAGAACUCUUGCUCGACGCAACUCUGGAGAGUGUUUGUGCGGAUGCGCAAACCACCAAAGGGGACGUCUUUGCGUAUGCAAAGUAAACUUUCAGGUGCCAGGACAGAGAAGAAGGACGGGUCCAGCUGCUUCGGCAGCUGUUGAGUAGAGUGUGAGCUUCUCU
Assay: in-solution fluorescence titration, Spinach/DFHBI-1T turn-off
Conditions: 125 mM K+, 20 mM Mg2+; apparent; 50 mM Tris pH 8.31, 20 µM DFHBI-1T

- KD: 71 ± 4 µM
SMILES: NCC(=O)O
